Results: patent publication US4813876A, “Method of treating living pulp tissue” (Dentsply Research & Development Corp., priority 1987, dated 1989)

Tested on: L929 mouse fibroblast cells
Test: Tissue culture MEM elution test (cytotoxicity)
Assay type: cell-based
Details: 25 mg
Description: One accepted method for determining the necessary biocompatibility of various compositions toward living tissue is an in vitro cell culture biocompatibility method wherein samples of the compositions to be tested are extracted in a bovine serum solution in a Minimum Essential Medium (MEM), whereafter the bovine serum solution and specified animal cells, such as human (WI-38), L929 mouse fibroblast cells or their equivalent, are incubated in a MEM for a predetermined period of time, and the incubated cells are visually observed and graded for cytotoxic manifestations. See, for example, R. E. Wilsnack, Quantitative Cell Culture Biocompatibility Testing of Medical Devices and Correlation To Animal Tests, Biomat, Med. Dev. Art. Org., 4(3& 4), 235-261 (1976). In connection with the present compositions, the in vitro cell culture method preferably is performed using L929 mouse fibroblast cells which have been cultured in a growth medium consisting of 5% bovine serum solution in MEM, wherein the bovine serum solution initially was used to extract a specified mass of cured or uncured material, as the case may be, and wherein the cells were incubated at 37°±2° C. for a specified period of time, e.g., 24, 48 or 72 hours. The degree of toxicity may be stated as a function of the percentage of the cells which have been lysed or fixed over the test period. […]

Structure (SMILES): [Ca+2].[OH-].[OH-] [Calcium Hydroxide, calcium hydroxide]
- Cytotoxic manifestation (footnote ***) (2 hours after extract placed on cells): All cells dead after 2 hours
- 24 hr results (% Lysed or fixed) (Table I, curing time 0 s, 24 hr): 100%
